Tests used:
Type in all cases: functional
[1] = Antioxidant activity assessed as DPPH radical scavenging activity incubated for 30 mins by spectrophotometric analysis
Homo sapiens = species on record: Homo sapiens; assay: Antiinflammatory activity against human blood incubated for 15 mins by thermostatic luminometric chemiluminescence based oxidative burst assay
Mus musculus [2] = assay: Analgesic activity against acetic acid induced mouse model assessed as reduction in writhing at 5 mg/kg, po administrated for 30 mins followed by acetic acid addition and measured after 20 mins by abdominal constriction test; set-up: scale not given: the % may be the effect or the level left; settings: time 50 min
Mus musculus [3] = assay: Analgesic activity against acetic acid induced mouse model assessed as number of writhes at 5 mg/kg, po administrated for 30 mins followed by acetic acid addition and measured after 20 mins by abdominal constriction test; settings: time 50 min
Mus musculus [4] = assay: Analgesic activity against acetic acid induced mouse model assessed as number of writhes at 10 mg/kg, po administrated for 30 mins followed by acetic acid addition and measured after 20 mins by abdominal constriction test; settings: time 50 min
Mus musculus [5] = assay: Analgesic activity against acetic acid induced mouse model assessed as reduction in writhing at 10 mg/kg, po administrated for 30 mins followed by acetic acid addition and measured after 20 mins by abdominal constriction test; set-up: scale not given: the % may be the effect or the level left; settings: time 50 min
[6] = Homo sapiens, Blood, 0.25 h, read-out: IC50

Row | Structure (SMILES) | IC50 [1] [µM] | IC50 (Homo sapiens; [6]) [µM] | further results
1 | CCCN1CSC(=S)N(C(C)c2ccccc2)C1 (racemic) | 69.9 | 16.9 | –
2 | CC(C)N1CSC(=S)N(C(C)c2ccccc2)C1 (racemic) | 78.9 | 7.5 | Activity (Mus musculus [2]): 4.65%; Activity (Mus musculus [3]): 41.35
3 | CCCN1CSC(=S)N(CC(=O)O)C1 | 93.6 | 39.7 | –
4 | CCCN1CN(CC(=O)O)CSC1=S | 76.8 | 23.8 | –
5 | CCN1CSC(=S)N(CC(=O)O)C1 | – | – | IC50 (Homo sapiens): Not Active
6 | CC(C)N1CN(CC(=O)O)CSC1=S | 87.5 | – | IC50 (Homo sapiens): Not Active
7 | C[C@H](c1ccccc1)N1CSC(=S)N([C@H](C)c2ccccc2)C1 | 65.9 | – | Activity (Mus musculus [2]): 9.3%; Activity (Mus musculus [3]): 39
8 | CCN1CN(CC(=O)O)CSC1=S | – | – | IC50 (Homo sapiens): Not Active
9 | CCCN1CN(CC(=O)OCC)CSC1=S | 87.5 | 7.1 | Activity (Mus musculus [2]): 32.05%; Activity (Mus musculus [3]): 29.25
10 | O=C(O)CN1CN(CCO)CSC1=S | 74.6 | – | IC50 (Homo sapiens): Not Active
11 | CCCCN1CSC(=S)N(CC(=O)O)C1 | – | – | IC50 (Homo sapiens): Not Active
12 | CCCCN1CSC(=S)N(C(C)c2ccccc2)C1 (racemic) | – | > 100 | –
13 | CCN1CSC(=S)N(C(C)c2ccccc2)C1 (racemic) | 61.2 | > 100 | –
14 | CCCCN1CN(CC(=O)O)CSC1=S | – | – | IC50 (Homo sapiens): Not Active
15 | CC(C)Cc1ccc(C(C)C(=O)O)cc1 (stereo unspecified) [IBUPROFEN] | – | 11.2 | –
16 | CCCN1CN(CC(=O)OCc2ccccc2)CSC1=S | – | 4.1 | –
17 | CCCN1CN(CC(=O)OC)CSC1=S | – | 32.4 | –
18 | CCN1CSC(=S)N(CC)C1 | – | 5.1 | Activity (Mus musculus [2]): 6.97%; Activity (Mus musculus [3]): 40.21
19 | COc1ccc(CN2CN(CC(=O)O)CSC2=S)cc1OC | 81.4 | > 100 | –
20 | CC(c1ccccc1)N1CN(CC(=O)O)CSC1=S (racemic) | 67.7 | 38.5 | –
21 | CCCCN1CN(CC(=O)OCC)CSC1=S | – | 14.4 | –
22 | COc1ccc2c(c1)c(CC(=O)O)c(C)n2C(=O)c1ccc(Cl)cc1 [INDOMETHACIN] | – | – | Activity (Mus musculus [4]): 22.88; Activity (Mus musculus [5]): 48.83%
23 | CC(c1ccccc1)N1CN(CCO)CSC1=S (racemic) | 77.5 | – | IC50 (Homo sapiens): Not Active
24 | C[C@@H](c1ccccc1)N1CSC(=S)N([C@@H](C)c2ccccc2)C1 | 69.9 | – | Activity (Mus musculus [2]): 18.6%; Activity (Mus musculus [3]): 35

Reference: ChEMBL document CHEMBL5223140, “Highly potent anti-inflammatory, analgesic and antioxidant activities of 3,5-disubstituted tetrahydro-2H-1,3,5-thiadiazine thiones” (Bioorg Med Chem Lett, 2023)
